Results from US10611750B2, “Tetrahydroquinoline compositions as bet bromodomain inhibitors” (FORMA Therapeutics, Inc., priority 2013, dated 2020).
Read-outs that look alike come from different tables or passages of the source.

Experiments:
[1] = target: T1, BRD4 Bromodomain 1 (BRD4 BD1) (Homo sapiens, UniProt O60885); assay: AlphaScreen binding assay, BRD4 BD1; details: His-tagged BRD4 BD1 50 nM, biotinylated H4 (1-21) K5/8/12/16 tetra-acetylated peptide 50 nM, compounds listed under IC50 range headings
T1 construct: 44-168 and BRD4 BD2
Method in brief: (§1)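 An AlphaScreen competition format was used with His-BRD4 BD1 or BD2 and biotin-H4 K5/8/12/16-acetyl peptide, each at matched final levels of 50 nM (BD1) or 100 nM (BD2). Incubation in HEPES/NaCl buffer with 0.1% BSA and 0.01% Triton X-100 ran ≥1 h before IC50 determination.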

[2] = test system: acute myelocytic leukemia (AML) cell line MV4-11; assay: Oncology cell growth assay (3-day proliferation, CellTiter-Glo); format: cell-based; details: Homo sapiens, MV4-11 cells, 3000 cells/well, compounds listed under IC50 range headings, read-out: MV411 IC50 (gIC50, inhibition of proliferation)
Method in brief: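 Compounds were serially diluted 3-fold in DMSO, giving final well concentrations from 10 down to 0.0045 μM. MV4-11 cells were then seeded at 3000 cells/well in RPMI 1640 with 10% FBS and incubated 72 hours. CellTiter-Glo signal was measured and gIC50 obtained by four-parameter logistic regression.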

[3] = target: T2, BRD4 Bromodomain 2 (BRD4 BD2) (Homo sapiens, UniProt O60885); assay: AlphaScreen binding assay, BRD4 BD2; details: His-tagged BRD4 BD2 100 nM, biotinylated H4 (1-21) K5/8/12/16 tetra-acetylated peptide 100 nM, compounds listed under IC50 range headings
T2 construct: 333-460 were cloned, expressed, and purified to homogeneity
Method in brief: as §1

IC50 [1] [nM] | IC50 ([2]; MV4-11, 72 h) [nM] | IC50 [3] [nM] | SMILES | IC50 ([2]; 72 hours) [nM]
100 to 1000 | < 500 | < 50 | COC(=O)N1c2ccc(-c3cnn(C4CCNCC4)c3)c(Oc3ccccc3Cl)c2CC[C@@H]1C [I-160, (S)-methyl 5-(2-chlorophenoxy)-2-methyl-6-(1-(piperidin-4-yl)-1H-pyrazol-4-yl)-3,4-dihydroquinoline-1(2H)-carboxylate] | –
100 to 1000 | < 500 | < 50 | COC(=O)N1c2ccc(-c3cnn(C4CCNCC4)c3)c(Oc3ccc(F)c(C#N)c3)c2CC[C@@H]1C [I-162, (S)-methyl 5-(3-cyano-4-fluorophenoxy)-2-methyl-6-(1-(piperidin-4-yl)-1H-pyrazol-4-yl)-3,4-dihydroquinoline-1(2H)-carboxylate] | –
1000 to 10000 | 500 to 1000 | 50 to 500 | COC(=O)N1c2ccc(-c3cnn(C4CC4)c3)c(Oc3ccccc3Cl)c2CC[C@@H]1C [I-215, (S)-methyl 5-(2-chlorophenoxy)-6-(1-cyclopropyl-1H-pyrazol-4-yl)-2-methyl-3,4-dihydroquinoline-1(2H)-carboxylate] | –
100 to 1000 | < 500 | < 50 | C[C@H]1CCc2c(ccc(-c3cnn(C4CNC4)c3)c2Oc2cccc(F)c2F)N1C(=O)C1CC1 [I-268, (S)-(6-(1-(azetidin-3-yl)-1H-pyrazol-4-yl)-5-(2,3-difluorophenoxy)-2-methyl-3,4-dihydroquinolin-1(2H)-yl)(cyclopropyl)methanone] | –
1000 to 10000 | < 500 | 50 to 500 | COC(=O)N1c2ccc(-c3cnn(CC(C)(C)O)c3)c(Oc3ncc(C)cn3)c2CC[C@@H]1C [I-583] | –
100 to 1000 | < 500 | < 50 | CC(=O)N1c2ccc(-c3cnn(C4CC4)c3)c(Oc3ccccc3C#N)c2CC[C@@H]1C [I-153, (S)-2-(1-acetyl-6-(1-cyclopropyl-1H-pyrazol-4-yl)-2-methyl-1,2,3,4-tetrahydroquinolin-5-yloxy)benzonitrile] | –
100 to 1000 | > 1000 | 50 to 500 | COC(=O)N1c2ccc(-c3cnn(CCS(C)(=O)=O)c3)c(OCC3CCCC3)c2CC[C@@H]1C [I-459] | –
100 to 1000 | < 500 | 50 to 500 | COC(=O)N1c2ccc(-c3cnn(CCO)c3)c(OC3CCC3)c2CC[C@@H]1C [I-446] | –
1000 to 10000 | 500 to 1000 | 50 to 500 | CCCOc1c(-c2nc3ccccc3[nH]2)ccc2c1CC[C@H](C)N2C(C)=O [I-121, (S)-1-(6-(1H-benzo[d]imidazol-2-yl)-2-methyl-5-propoxy-3,4-dihydroquinolin-1(2H)-yl)ethanone] | –
100 to 1000 | 500 to 1000 | < 50 | CC(=O)N1c2ccc(-c3cnn(C4CC4)c3)c(OCC3(F)COC3)c2CC[C@@H]1C [I-50, (S)-1-(6-(1-cyclopropyl-1H-pyrazol-4-yl)-5-((3-fluorooxetan-3-yl)methoxy)-2-methyl-3,4-dihydroquinolin-1 (2H)-yl)ethanone] | –
100 to 1000 | < 500 | < 50 | COC(=O)N1c2ccc(-c3cnn(C4CCNCC4)c3)c(Oc3ccc(C#N)cc3Cl)c2CC[C@@H]1C [I-134, (S)-methyl 5-(2-chloro-4-cyanophenoxy)-2-methyl-6-(1-(piperidin-4-yl)-1H-pyrazol-4-yl)-3,4-dihydroquinoline-1(2H)-carboxylate] | –
1000 to 10000 | 500 to 1000 | 50 to 500 | COC(=O)N1c2ccc(-c3cnn(CCO)c3)c(Oc3cnccn3)c2CC[C@@H]1C [I-560] | –
100 to 1000 | < 500 | 50 to 500 | CC(=O)N1c2ccc(-c3cnn(C4CCNCC4)c3)c(Oc3ncc(C(F)(F)F)cn3)c2CC[C@@H]1C [I-519] | –
100 to 1000 | < 500 | < 50 | CC(=O)N1c2ccc(-c3cnn(C4CCNCC4)c3)c(Oc3ccccc3Cl)c2CC[C@@H]1C [I-157, (S)-1-(5-(2-chlorophenoxy)-2-methyl-6-(1-(piperidin-4-yl)-1H-pyrazol-4-yl)-3,4-dihydroquinolin-1(2H)-yl)ethanone] | –
1000 to 10000 | < 500 | 50 to 500 | COC(=O)N1c2ccc(-c3cnn(C4CCNCC4)c3)c(Oc3ncccn3)c2CC[C@@H]1C [I-525] | –
< 100 | < 500 | < 50 | CC(=O)N1c2ccc(-c3cnn(C4CC4)c3)c(OCC3CCCC3)c2CC[C@@H]1C [I-385] | –

IC50 [1] [nM] | IC50 ([2]; MV4-11, 72 h) [nM] | IC50 [3] [nM] | SMILES | IC50 ([2]; 72 hours) [nM]
1000 to 10000 | < 500 | 50 to 500 | CC(=O)N1c2ccc(-c3cnn(C4CC4)c3)c(Oc3ncccc3C)c2CC[C@@H]1C [I-286, (S)-1-(6-(1-cyclopropyl-1H-pyrazol-4-yl)-2-methyl-5-(3-methylpyridin-2-yloxy)-3,4-dihydroquinolin-1 (2H)-yl)ethanone] | –
1000 to 10000 | > 1000 | 50 to 500 | COC(=O)N1c2ccc(-c3cnn(CCS(C)(=O)=O)c3)c(Oc3ccc(C(F)(F)F)cn3)c2CC[C@@H]1C [I-554] | –
1000 to 10000 | 500 to 1000 | 50 to 500 | CC(=O)N1c2ccc(-c3cnn(C4CC4)c3)c(OCS(=O)(=O)N(C)C)c2CC[C@@H]1C [I-46, (S)-(1-acetyl-6-(1-cyclopropyl-1H-pyrazol-4-yl)-2-methyl-1,2,3,4-tetrahydroquinolin-5-yloxy)-N,N-dimethylmethanesulfonamide] | –
100 to 1000 | 500 to 1000 | 50 to 500 | COC(=O)N1c2ccc(-c3cnn(C4CC4)c3)c(OCC(=O)N3CCC3)c2CC[C@@H]1C [I-23, (S)-methyl 5-(2-(azetidin-1-yl)-2-oxoethoxy)-6-(1-cyclopropyl-1H-pyrazol-4-yl)-2-methyl-3,4-dihydroquinoline-1(2H)-carboxylate] | –
100 to 1000 | < 500 | < 50 | COC(=O)N1c2ccc(-c3cnn(C4CCNCC4)c3)c(Oc3cccc(F)c3)c2CC[C@@H]1C [I-188, Methyl (S)-5-(3-fluorophenoxy)-2-methyl-6-(1-(piperidin-4-yl)-1H-pyrazol-4-yl)-3,4-dihydroquinoline-1(2H)-carboxylate] | –
100 to 1000 | < 500 | < 50 | C[C@H]1CCc2c(ccc(-c3cnn(C4CCNCC4)c3)c2Oc2cccc(F)c2C#N)N1C(=O)C1CC1 [I-151, (S)-2-(1-(cyclopropanecarbonyl)-2-methyl-6-(1-(piperidin-4-yl)-1H-pyrazol-4-yl)-1,2,3,4-tetrahydroquinolin-5-yloxy)-6-fluorobenzonitrile] | –
100 to 1000 | < 500 | < 50 | C[C@H]1CCc2c(ccc(-c3cnn(C4CCNCC4)c3)c2Oc2ccc(C#N)cc2)N1C(=O)C1CC1 [I-167] | –
≥ 10000 | > 1000 | ≥ 500 | CCCOc1c(C2CCNCC2)ccc2c1CC[C@H](C)N2C(C)=O [I-353, (S)-1-(2-methyl-6-(piperidin-4-yl)-5-propoxy-3,4-dihydroquinolin-1(2H)-yl)ethan-1-one] | –
1000 to 10000 | 500 to 1000 | 50 to 500 | CC=Cn1c(Oc2c(-c3cnn(C4CC4)c3)ccc3c2CC[C@H](C)N3C(C)=O)nc2ccccc21 (single isomer, unassigned) [I-352] | –
1000 to 10000 | 500 to 1000 | 50 to 500 | CC(=O)N1c2ccc(-c3ccc(S(C)(=O)=O)cc3)c(Oc3ncc(F)cn3)c2CC[C@@H]1C [I-549] | –
1000 to 10000 | 500 to 1000 | 50 to 500 | COC(=O)N1c2ccc(-c3cnn(CCO)c3)c(Oc3ccc(C(F)(F)F)cn3)c2CC[C@@H]1C [I-556] | –
≥ 10000 | > 1000 | ≥ 500 | COC(=O)N1c2ccc(-c3cnn(C4CCNCC4)c3)c(Oc3cc(N4CCOCC4)ncn3)c2CC[C@@H]1C [I-530] | –
1000 to 10000 | < 500 | 50 to 500 | COC(=O)N1c2ccc(-c3cnn(C4CCNCC4)c3)c(Oc3ncc(C)cn3)c2CC[C@@H]1C [I-535] | –
1000 to 10000 | < 500 | 50 to 500 | COC(=O)N1c2ccc(-c3cnn(C4CCNCC4)c3)c(Oc3ccc(C(F)(F)F)cn3)c2CC[C@@H]1C [I-524] | –
100 to 1000 | < 500 | < 50 | COC(=O)N1c2ccc(-c3cnn([C@H]4CCNC[C@@H]4F)c3)c(Oc3ccc(F)cc3)c2CC[C@@H]1C [I-364, methyl (2S)-5-(4-fluorophenoxy)-6-{1-[(3S,4S)-3-fluoropiperidin-4-yl]-1H-pyrazol-4-yl}-2-methyl-1,2,3,4-tetrahydroquinoline-1-carboxylate] | –
100 to 1000 | 500 to 1000 | 50 to 500 | CC(=O)N1c2ccc(-c3cnn(C4CC4)c3)c(OC(C)C)c2CC[C@@H]1C [I-388] | –

SMILES | IC50 [1] [nM] | IC50 ([2]; MV4-11, 72 h) [nM] | IC50 [3] [nM] | IC50 ([2]; 72 hours) [nM]
COC(=O)N1c2ccc(-c3cnn(C4CCOCC4)c3)c(OC3CCC3)c2CC[C@@H]1C [I-68, (S)-methyl 5-cyclobutoxy-2-methyl-6-(1-(tetrahydro-2H-pyran-4-yl)-1H-pyrazol-4-yl)-3,4-dihydroquinoline-1(2H)-carboxylate] | 100 to 1000 | < 500 | < 50 | –
CC(=O)N1c2ccc(-c3cnn(C4CC4)c3)c(OC(F)C(N)=O)c2CC[C@@H]1C (single isomer, unassigned) [I-64] | ≥ 10000 | – | ≥ 500 | > 1000
